Experimental data: ChEMBL document CHEMBL2073900, “Cellular uptake and efflux of the tea flavonoid (-)epicatechin-3-gallate in the human intestinal cell line Caco-2” (J Pharmacol Exp Ther, 2003)

Target: ATP-binding cassette sub-family C member 2 (Homo sapiens, UniProt Q92887)
Test: TP_TRANSPORTER: uptake in membrane vesicle from MRP2-expressing MDCKII cells
Type: functional, cell membranes
Details: dog, mdck-ii

Sequence of ATP-binding cassette sub-family C member 2 (Q92887 whole entry): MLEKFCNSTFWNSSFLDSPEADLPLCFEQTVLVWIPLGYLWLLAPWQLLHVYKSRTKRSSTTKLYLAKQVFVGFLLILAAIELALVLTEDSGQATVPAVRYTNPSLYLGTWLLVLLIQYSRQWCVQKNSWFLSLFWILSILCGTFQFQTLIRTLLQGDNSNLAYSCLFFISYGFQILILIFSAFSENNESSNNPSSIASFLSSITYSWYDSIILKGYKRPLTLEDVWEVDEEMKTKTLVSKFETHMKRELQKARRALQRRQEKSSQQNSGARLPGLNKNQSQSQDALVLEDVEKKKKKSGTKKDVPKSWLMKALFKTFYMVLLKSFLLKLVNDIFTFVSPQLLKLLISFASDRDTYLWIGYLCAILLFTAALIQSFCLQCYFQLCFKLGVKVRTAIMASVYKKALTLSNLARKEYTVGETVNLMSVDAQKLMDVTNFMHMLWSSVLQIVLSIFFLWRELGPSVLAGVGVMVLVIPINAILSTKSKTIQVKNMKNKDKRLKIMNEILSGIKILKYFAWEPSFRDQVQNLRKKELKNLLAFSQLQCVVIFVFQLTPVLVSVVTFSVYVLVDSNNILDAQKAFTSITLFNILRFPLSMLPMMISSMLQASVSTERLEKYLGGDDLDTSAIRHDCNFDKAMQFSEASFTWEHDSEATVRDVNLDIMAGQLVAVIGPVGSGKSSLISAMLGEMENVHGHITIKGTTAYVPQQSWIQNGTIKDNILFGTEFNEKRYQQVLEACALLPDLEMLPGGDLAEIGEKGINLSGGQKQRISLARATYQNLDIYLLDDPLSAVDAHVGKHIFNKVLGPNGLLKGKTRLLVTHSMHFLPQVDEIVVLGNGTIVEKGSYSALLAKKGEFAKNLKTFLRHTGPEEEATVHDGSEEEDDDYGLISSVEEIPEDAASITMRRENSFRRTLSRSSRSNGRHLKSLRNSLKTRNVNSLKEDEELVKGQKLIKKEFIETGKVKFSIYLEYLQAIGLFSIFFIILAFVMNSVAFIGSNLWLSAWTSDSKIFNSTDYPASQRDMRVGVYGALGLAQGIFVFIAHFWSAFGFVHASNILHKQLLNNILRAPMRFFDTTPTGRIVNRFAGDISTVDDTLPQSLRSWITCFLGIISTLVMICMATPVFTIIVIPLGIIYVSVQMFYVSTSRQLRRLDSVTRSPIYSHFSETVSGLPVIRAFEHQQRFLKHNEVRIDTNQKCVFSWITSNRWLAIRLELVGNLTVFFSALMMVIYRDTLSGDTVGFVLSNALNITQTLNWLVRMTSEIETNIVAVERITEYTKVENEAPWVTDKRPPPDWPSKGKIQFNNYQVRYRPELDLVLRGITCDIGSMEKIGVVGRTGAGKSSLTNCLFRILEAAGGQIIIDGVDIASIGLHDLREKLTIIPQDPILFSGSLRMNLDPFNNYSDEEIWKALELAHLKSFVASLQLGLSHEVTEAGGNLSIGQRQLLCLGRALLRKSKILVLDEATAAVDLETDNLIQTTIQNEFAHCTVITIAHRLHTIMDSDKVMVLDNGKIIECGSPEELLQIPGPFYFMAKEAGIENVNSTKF

SMILES: O=C(O[C@@H]1Cc2c(O)cc(O)cc2O[C@@H]1c1ccc(O)c(O)c1)c1cc(O)c(O)c(O)c1 [EPICATECHIN GALLATE]
- Activity: substrate []
